The target of test [1] is PCP recognition sites (PCP receptor). The test can be described thus: [3H]TCP radioreceptor assay (binding to PCP recognition sites). Further details: species or system rat (male Sprague-Dawley. To be noted: rat whole brain membranes, approx. 1 nM [3H]TCP; for Ki: mean of at least two determinations. The method, then:
[^3 H]TCP Radioreceptor Assay
[^3 H]TCP binding to PCP recognition sites was performed as described by Vignon et al. Brain Research 1983, 280, 194-197. Male Sprague-Dawley rats were sacrificed by decapitation, and whole brains were homogenized in 10 volumes (wt/vol) of cold Tris-HCl buffer (50 mM, pH 7.7) using a Brinkmann Polytron (setting 6, 30 sec). The homogenate was centrifuged at 40,000×g for 10 min at 4° C. The supernatant was decanted, and the homogenization and centrifugation steps were repeated twice as described above. Following this, the pellet was resuspended in Tris-HCl (5 mM, pH 7.7) at a tissue concentration of 0.5-0.75 g/ml, and one ml aliquots were frozen at -70° C. until use. The binding characteristics for PCP recognition sites were not altered by the freezing of membrane suspensions.
On the day of the assay, membrane aliquots were thawed, resuspended in fresh 5 mM Tris-HCl buffer at a tissue concentration of 1 mg/ml, and stored on ice until use. Each assay tube contained 100 μl of [^3 H]TCP at a final concentration of approximately 1 nM, 100 μl of various concentrations of the compounds of interest, 500 μl of the tissue suspension and 300 μl of buffer to a final assay volume of 1 ml and a final protein concentration of 0.5 mg/tube. Non-specific binding was defined by addition of a final concentration of 100 μM PCP to blank tubes. All tubes were incubated at room temperature for 25 min before termination of the reaction by rapid filtration over Whatman GF/B glass fiber filters that had been presoaked in a solution of 0.5% polyethylenimine for at least 1 hr prior to use. Filters were washed with three 4 ml volumes of cold Tris buffer. Following addition of scintillation cocktail, the amount of bound radioactivity was determined by liquid scintillation spectrometry using a Beckman LS 5000TA liquid scintillation counter with an efficiency for tritium of approximately 55%. Inhibition constants (Ki values) were calculated using the EBDA/LIGAND program (McPherson, J. Pharmacol. Meth. 1985, 14, 213-228), purchased from Elsevier/Biosoft, Inc. The results are reported as Ki values (in nM) which are expressed as the mean of at least two separate determinations, or as a percent (%) inhibition of binding at 10 μM.
(§1) Table 4 summarizes the results obtained from the testing of representative compounds of the invention in the [^3 H]TCP radioreceptor assay as well as in the antagonism of NMDA-induced neurotoxicity in cultured neurons.

In test [2] the test system is NMDA-induced neurotoxicity in cultured cortical neurons. The test can be described thus: Antagonism of NMDA-induced neurotoxicity in cultured neurons. The following applies: 500 μM NMDA for 30 minutes, LDH activity after 24 hours. The class given is cell-based, mouse (Swiss-Webster). The method, then: Antagonism of NMDA-induced Neurotoxicity in Cultured Neurons
Preparation of cultured cortical neurons
Pregnant, Swiss-Webster mice were obtained from Taconic Farms (Germantown, N.Y.) and sacrificed 16 days post conception. Fetuses were removed and placed in a sterile dish containing Hank's balanced salt solution (HBSS), pH 7.4. Brain cortices were dissected, meninges were removed, the tissue was minced and placed into a solution of HBSS containing 0.25% (w/v) trypsin at 37° C. for 15 minutes. Tissue was then triturated with a sterile pasteur pipet, diluted with minimal essential media (Gibco 330-1430), pH 7.4, supplemented with 10% horse serum, 10% fetal calf serum, 2 mM 1-glutamine, 21 mM d-glucose, 2.2 g/L sodium bicarbonate, 1000 U/ml penicillin, and 1,000 μg/ml streptomycin. Cells were plated onto Falcon primaria 96 well plates at a final density of 50,000 cells/well and incubated at 37° C. in the presence of 5% (v/v) carbon dioxide. After 5 days, plating media was replaced with maintenance media containing minimal essential media (Gibco 330-1430), pH 7.4, supplemented with 10% horse serum, 10% 1-glutamine, 21 mM D-glucose, 2.2 g/l sodium bicarbonate,1,000 U/ml penicillin, 1,000 μg/ml streptomycin, and 10 μM cytosine arabinoside. On days 7 and 10, media was replaced with maintenance media as above lacking the cytosine arabinoside. Experiments were conducted on day 13.
Neuroprotection Assessment
Day 13 cultured cortical neurons were washed twice with minimal essential media, pH 7.4 and then exposed for 30 minutes to 500 μM N-methyl-D-aspartic acid (NMDA) with or without varying concentrations of test agents. […] MK-801 and test agents were prepared in minimal essential media supplemented with 21 mM d-glucose and 2.2 g/L sodium bicarbonate (MEM). After 30 minutes, media was replaced with MEM alone. Exposure of neurons to test agents was limited to the NMDA treatment period. Twenty-four hours after removal of NMDA, an aliquot of media from each well was removed for assessment of cell injury by determining lactate dehydrogenase (LDH) activity by the method of Wroblewski and LaDue Proc. Soc. Exp. Biol. Med. 1955, 90, 210-213. The results are expressed as an IC50 (in nM) value (concentration causing 50% inhibition) for the antagonism of NMDA-induced neurotoxicity.
as §1

What is called Ki is a measure of affinity in units of concentration, obtained from inhibition or displacement. High values mean weaker binding, low ones tighter binding. For orientation: IC50 means the concentration at which inhibition is half-maximal.

Take `c1ccc2c(c1)C1CC(c3ccoc3)(c3ccoc3)C2c2scc[n+]21` (racemic) [4(e), 11,11-di(3-furyl)-5,10-ethano-5,10-dihydrothiazolo[3,2-b]isoquinolinium chloride]: the affinity in test [1] corresponds to a Ki of 0.0029 µM. Moreover, the IC50 in test [2] (Mus musculus, Cortical neurone) was 0.05 µM.
In test [1], `c1ccc2c(c1)C1CC(c3ccoc3)(c3ccoc3)C2c2scc[n+]21` (single isomer, unassigned; (+)) [5(e), (+)-11,11-di(3-furyl)-5,10-ethano-5,10-dihydrothiazolo[3,2-b]isoquinolinium chloride] returned a Ki of 0.002 µM. Moreover, in test [2], the half-maximal inhibitory concentration (IC50) amounted to 0.02 µM.
In test [1], `c1ccc2c(c1)C1CC(c3ccoc3)(c3ccoc3)C2c2scc[n+]21` (single isomer, unassigned; (-)) [5(c), (-)-11,11-di(3-furyl)-5,10-ethano-5,10-dihydrothiazolo[3,2-b]isoquinolinium chloride] registered a Ki of 0.005 µM. For the same compound, 0.032 µM corresponded to half-maximal inhibition in test [2] (Mus musculus, Cortical neurone) (IC50).
In test [1], `c1ccc(Cn2cc[n+]3c2C2c4ccccc4C3CC2(c2ccoc2)c2ccoc2)cc1` (stereo not drawn) [2(F), 11,11-di(3-furyl)-5,10-ethano-5,10-dihydro-1-benzylimidazo[1,2-b]isoquinolin-4-ium chloride] gave a Ki of 0.0077 µM.
As for `c1ccc(C2(c3ccccc3)CC3c4ccccc4C2c2scc[n+]23)cc1` (stereo not drawn) [2(b), 11,11-diphenyl-5,10-ethano-5,10-dihydrothiazolo[1,2-b]isoquinolin-4-ium chloride], the Ki in test [1] was determined as 0.0042 µM.
`Cn1cc[n+]2c1C1c3ccccc3C2CC1(c1ccccc1)c1ccccc1` (stereo not drawn) [3(b), 11,11-diphenyl-5,10-ethano-5,10-dihydro-1-methylimidazo[1,2-b]isoquinolin-4-ium chloride] gave a Ki in test [1] of 0.013 µM. This Ki is about 3.1-fold higher than that of the compound before.
In test [1], `CCOC1(OCC)C2c3c(OC)cccc3C([n+]3ccsc32)C1(C)C` (stereo not drawn) [6(d), 11,11-diethoxy-12,12-dimethyl-9-methoxy-5,10-ethano-5,10-dihydrothiazolo[3,2-b]isoquinolinium chloride] came in with a Ki of 0.0092 µM. In test [2] (Mus musculus, Cortical neurone), it took 0.079 µM to reach half-maximal inhibition (IC50).
`CCOC1(OCC)C2c3ccccc3C([n+]3ccn(Cc4ccccc4)c32)C1(C)C` (stereo not drawn) [8(b), 11,11-diethoxy-12,12-dimethyl-5,10-ethano-5,10-dihydro-1-benzylimidazo[1,2-b]isoquinolin-4-ium chloride] registered a Ki in test [1] of 0.01 µM. That is a double-digit nanomolar value.
Compound `c1ccc(Cn2cc[n+]3c2C2c4ccccc4C3CC2(c2ccccc2)c2ccccc2)cc1` (stereo not drawn) [9(b), 11,11-diphenyl-5,10-ethano-5,10-dihydro-1-benzylimidazo[1,2-b]isoquinolin-4-ium chloride] returned a Ki in test [1] of 0.089 µM. Compared with the last compound, the Ki is about 8.9-fold higher.
Still for that read-out and setting: to `CCOC1(OCC)C2c3ccccc3C([n+]3cnn(C)c32)C1(C)C` (stereo not drawn) [10(b), 11,11-diethoxy-12,12-dimethyl-5,10-ethano-5,10-dihydro-1-methyl-1,2,4-triazolo[1,2-b]isoquinolin-4-ium chloride] belongs 0.03 µM; to `Cn1nc[n+]2c1C1c3ccccc3C2CC1(c1ccccc1)c1ccccc1` (stereo not drawn) [11(g), 11,11-diphenyl-5,10-ethano-5,10-dihydro-1-methyl-1,2,4-triazo[1,2-b]isoquinolin-4-ium chloride], 0.035 µM.
As to `Cn1nc[n+]2c1C1c3ccccc3C2CC1(c1ccoc1)c1ccoc1` (stereo not drawn) [14(E), 11,11-di(3-furyl)-5,10-ethano-5,10-dihydro-1-methyl-1,2,4-triazolo[1,2-b]isoquinolin-4-ium chloride], the Ki in test [1] was found to be 0.014 µM.
As for `COc1ccc(Cn2ccc(C3(c4ccn(Cc5ccc(OC)cc5)n4)CC4c5ccccc5C3c3scc[n+]34)n2)cc1` (stereo not drawn) [18(e), 11,11-di-[(1-p-methoxybenzyl)-pyrazol-3-yl)]-5,10-ethano-5,10-dihydrothiazolo[3,2-b]isoquinolinium perchlorate], the “[3H]TCP percent inhibition of binding @ 10 μM” value in test [1] (10 μM) was 6%.
In turn, `COc1ccc(Cn2cc[n+]3c2C2c4ccccc4C3CC2(c2ccoc2)c2ccoc2)cc1` (stereo not drawn) [19(F), 11,11-di(3-furyl)-5,10-ethano-5,10-dihydro-1-(p-methoxybenzyl)imidazo[1,2-b]isoquinolin-4-ium chloride] gave an inhibitory constant (Ki) in test [1] of 0.03 µM.
Turning to `c1ccc(-n2cc[n+]3c2C2c4ccccc4C3CC2(c2ccoc2)c2ccoc2)cc1` (stereo not drawn) [199(f), 11,11-di(3-furyl)-5,10-ethano-5,10-dihydro-1-phenylimidazo[1,2-b]isoquinolin-4-ium chloride], in test [1], the affinity corresponds to a Ki of 0.0522 µM.
As to `c1ccc(CCCn2cc[n+]3c2C2c4ccccc4C3CC2(c2ccoc2)c2ccoc2)cc1` (stereo not drawn) [200(g), 11,11-di(3-furyl)-5,10-ethano-5,10-dihydro-1-(3-phenylpropyl)imidazo[1,2-b]isoquinolin-4-ium chloride], the Ki in test [1] is 0.0678 µM.
On the same count and under the same terms, next, `CCCCn1cc[n+]2c1C1c3ccccc3C2CC1(c1ccoc1)c1ccoc1` (stereo not drawn) [201(f), 11,11-di(3-furyl)-5,10-ethano-5,10-dihydro-1-butylimidazo-[1,2-b]isoquinolin-4-ium chloride]: 0.0363 µM.
Same read-out and setting: to `c1ccc(Cn2cc[n+]3c2C2c4ccccc4C3CC2(c2cc[nH]n2)c2cc[nH]n2)cc1` (stereo not drawn) [202(c), 11,11-di(pyrazol-3-yl)-5,10-ethano-5,10-dihydro-1-benzylimidazo-[1,2-b]isoquinolin-4-ium chloride] belongs 0.0365 µM.
`c1ccc(C(c2ccccc2)n2cc[n+]3c2C2c4ccccc4C3CC2(c2ccoc2)c2ccoc2)cc1` (stereo not drawn) [203(d), 11,11-di(3-furyl)-5,10-ethano-5,10-dihydro-1-(1,1-diphenylmethyl)imidazo[1,2-b]isoquinolin-4-ium hexafluorophosphate]: the affinity in test [1], expressed as Ki, was 0.306 µM.
Take `c1ccc2c(c1)C1CC(c3ccoc3)(c3ccoc3)C2c2n(Cc3ccc4ccccc4c3)cc[n+]21` (stereo not drawn) [204(e), 11,11-di(3-furyl)-5,10-ethano-5,10-dihydro-1-(2-naphthyl-methyl)imidazo[1,2-b]isoquinolin-4-ium chloride]: the Ki in test [1] amounted to 0.33 µM.
In test [1], `c1ccc2c(c1)C1CC(c3ccoc3)(c3ccoc3)C2c2n(Cc3cccc4ccccc34)cc[n+]21` (stereo not drawn) [205(e), 11,11-di(3-furyl)-5,10-ethano-5,10-dihydro-1(1-naphthylmethyl)imidazo[1,2-b]isoquinolin-4-ium chloride] gave an inhibition constant Ki of 0.329 µM.
`COc1cccc2c1C1c3scc[n+]3C2CC1(c1ccoc1)c1ccoc1` (stereo not drawn) [207(b), 11,11-di(3-furyl)-9-methoxy-5,10-ethano-5,10-dihydrothiazolo[3,2-b]isoquinolinium chloride]: the Ki in test [1] came out at 0.0141 µM.
`O=C1CC(C2(C3=COC(=O)C3)CC3c4ccccc4C2c2scc[n+]23)=CO1.[O-][Cl+3]([O-])([O-])[O-]` (stereo not drawn) [Example 17, 11,11-di-(5-oxo-4,5-dihydro-3-furyl)-5,10-ethano-5,10-dihydrothiazolo[3,2-b]isoquinolinium perchlorate] registered a Ki in test [1] of 0.64 µM.

The record behind these values is patent US5569655A, “Substituted heterocyclylisoquinolinium salts and compositions and method of use thereof” (Sterling Winthrop Inc., priority 1994, dated 1996).
